Tests used:
[1] = tested on: pylorus-ligated Shay rat gastric ulcer; assay: Pylorus-ligated Shay rat gastric ulcer; assay type: in vivo, SD rats; details: 80 mg/kg, ig; mean ± SD
Method: 50 SD rats with a body weight of 180 to 200 g and equal numbers of female and male were provided by the Experimental Animal Center of Nanjing Medical University, and the tests were conducted according to the methods in “Collection of Guidelines for Preclinical Studies of New Drugs (Western Medicines)” edited by China Ministry of Health.

[2] = tested on: acetic acid-burn induced gastric ulcer in rats; assay: Acetic acid-burn induced gastric ulcer in rats; assay type: in vivo; details: 80 mg/kg, ig; mean ± SD
Method: 50 SD rats with a body weight of 180 to 200 g and equal numbers of female and male were provided by the Experimental Animal Center of Nanjing Medical University, and the tests were conducted according to the methods in “Collection of Guidelines for Preclinical Studies Of New Drugs (Western Medicines)” edited by China Ministry of Health.

[3] = tested on: cysteamine-induced rat duodenal ulcer; assay: Cysteamine-induced rat duodenal ulcer; assay type: in vivo, SD rats; details: 20 mg/kg
Method: 50 male SD rats with a body weight of 250 to 300 g were used, and cysteamine was commercially available from Sigma Company. The tests were conducted according to the methods in “Drug Discovery and Evaluation—Pharmacological Assays” (H. G. Vogel, W. H. Vogel. Chinese version, translated by Du Guanhua, published by Science Publishing House).

[4] = tested on: acetic acid-induced rat colonitis; assay: 10% acetic acid-induced rat ulcerative colonitis; assay type: in vivo, SD rats; details: 10 mg/kg, mean ± SD
Method: The test was conducted according to the method in the document (Ritzpatrick, R. et al., Agents Actions. 1990, 30:393-402). SD rats were subjected to rectoclysis to form models of colonitis. From the 4th day after the models had been made, the rats were intragastrically administrated for 4 days.

[5] = tested on: mouse gastric emptying; assay: Mouse gastric emptying (phenol red method); assay type: in vivo, Kunming mice; details: 0.1 mg/kg; mean ± SD
Method: 105 Kunming mice with a body weight of from 20 to 25 g and equal numbers of male and female were used. The test was conducted according to the methods in “Collection of Guidelines for Preclinical Studies of New Drugs (Western Medicines)” edited by China Ministry of Health, and the phenol red method (Shi G., et al. Gut, 41:612-618, 1997).

[6] = tested on: TNBS-induced rat colonitis; assay: TNBS-induced rat colonitis; assay type: in vivo, SD rats; details: 0.3 g/kg, intragastric for 7 days; mean ± SD
Method: The test was counted according to the method in the document (Morris, C. P. et al: Gastroenterology. 1989, 96:795-803). TNBS was commercially available from Sigma Company. SD rats were subjected to rectoclysis of 100 mg/kg of TNBS to form models of colonitis. Each group included 10 rats. From the 14th day after the models had been made, the rats were intragastrically administrated for 7 days. The rats were killed by drawing their necks and were dissected, and their colon sections were histopathologically observed.

[7] = tested on: anhydrous ethanol-induced rat gastric mucosa damage; assay: Anhydrous ethanol-induced rat gastric mucosa damage; assay type: in vivo, SD rats; details: 100 mg/kg, ig; mean ± SD
Method: 60 SD rats with equal numbers of female and male were provided by the Experimental Animal Center of Nanjing Medical University, and the tests were conducted according to the methods in “Collection of Guidelines for Preclinical Studies of New Drugs (Western Medicines)” edited by China Ministry of Health.

[8] = tested on: PGE2 content in gastric mucosa; assay: PGE2 content in gastric mucosa of rat with indomethacin-induced gastric ulcer (radioimmunoassay); assay type: in vivo, SD rats; details: 100 mg/kg; mean ± SD
Method: 60 SD rats with a body weight of 180 to 200 g and equal numbers of male and female were used, Indomethacin was commercially available from Sigma Company. The PGE2 content was measured by radioimmunoassay. The tests were conducted according to the methods in “Drug Discovery and Evaluation—Pharmacological Assays” (H. G. Vogel, W. H. Vogel. Chinese version, translated by Du Guanhua, published by Science Publishing House).

CN/C(=N/CCSCc1nc[nH]c1C)NC#N [Cimetidine]
Ulcer index [1]: 15.8 ± 1.5
Ulcer area (mm^2) [2]: 44.7 ± 38.4 mm^2

NC(N)=Nc1nc(CSCCC(N)=NS(N)(=O)=O)cs1 [Famotidine]
Inhibition ratio (%) [3]: 27.27%
Ulcer index ([3]; mean ± SD): 2.0 ± 1.3
Score of ulcer index ([4]; intragastric for 4 days): 4.14 ± 3.76
Ratio of bowel weight to body weight (×10^−2) [4]: 0.92 ± 0.45 ×10^−2

CN(C)C(=O)Oc1ccc[n+](C)c1 [Pyridostigmine bromide]
Amount of residual phenol red in stomach [5]: 0.47 ± 0.36 mg
Gastric emptying ratio (%) [5]: 93.8 ± 4.8 %

O=C(O)c1cc(/N=N/c2ccc(S(=O)(=O)Nc3ccccn3)cc2)ccc1O [Sulfasalazine]
Increment of body weight [6]: 68.89 ± 21.64

Bismuth Potassium Citrate
Ulcer index [7]: 15.0 ± 6.0
PGE2 (pg/mg protein) [8]: 170 ± 104 pg/mg protein
